Test results: patent US12495798B2, “Nicotinamide compound and herbicidal composition comprising compound” (KOREA RESEARCH INSTITUTE OF CHEMICAL TECHNOLOGY, priority 2019, dated 2025)

What was measured:
Assay type in all cases: in vivo
Parameters in all cases: key: 0 (no harm); 9 (complete withered)
[1] = tested on: cotton; assay: Phytotoxicity test for upland field crops (foliar treatment test)
Outline: (§1)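 Spray-booth foliar treatment of greenhouse-grown crops at 19˜300 g a.i./ha. Visual crop injury was scored 0–9 against untreated plants at 7 and 14 days.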

[2] = tested on: rice; assay: as above
Outline: as §1

[3] = tested on: corn; assay: as above
Outline: as §1

[4] = tested on: wheat; assay: as above
Outline: as §1

[5] = tested on: soybean; assay: as above
Outline: as §1

[6] = tested on: cotton; assay: Phytotoxicity test for field crops (soil treatment test)
Procedure: (§2) Experimental Example 4: Phytotoxicity Test for Field Crops (Soil Treatment Test)
(§3) Soil treatment was performed for sown crops and weeds in a square plastic pot having a surface area of 50 cm^2 filled with sterilized horticultural soil (pH 6.1, organic material 1.0%, clay 21%, silt 17%, sand 52%). As a fertilizer per pot, 0.5 g of horticultural mixed fertilizer (N:P:K=17:21:17) was treated by mixing with soil. Five kinds of crops such as rice, wheat, corn, soybean, and cotton were sown in each pot. One day after sowing, test compound solutions were made by diluting with the diluent (33% acetone, 0.1% Tween-20) so that the final treatment amount of the test compounds was 19˜300 g a.i./ha. The prepared test compound solutions were treated using a spray booth (SB6-016) at a treatment amount of 100 ml per 1 m^2 of treatment area. The treated crops were managed in greenhouse conditions (average temperature 30±5° C., light/dark=14/10 hours). External symptoms and phytotoxicity were visually investigated 10 and 20 days after treatment. In the evaluation of the phytotoxicity for the crop, the grade of 0 (no harm) to 9 (complete withered) was used. The results of Table 10 were obtained by evaluating phytotoxicity value to the untreated control.

[7] = tested on: rice; assay: as above
Procedure: as §2, §3

[8] = tested on: corn; assay: as above
Procedure: as §2, §3

[9] = tested on: wheat; assay: as above
Procedure: as §2, §3

[10] = tested on: soybean; assay: as above
Procedure: as §2, §3

[11] = 50 g ai/ha, Cotton (7 days after treatment)
[12] = 50 g ai/ha, Cotton (14 days after treatment)
[13] = 100 g ai/ha, Cotton (7 days after treatment)
[14] = 100 g ai/ha, Cotton (14 days after treatment)
[15] = 50 g ai/ha, Rice (7 days after treatment)
[16] = 50 g ai/ha, Rice (14 days after treatment)
[17] = 100 g ai/ha, Rice (7 days after treatment)
[18] = 100 g ai/ha, Rice (14 days after treatment)
[19] = 50 g ai/ha, Corn (7 days after treatment)
[20] = 50 g ai/ha, Corn (14 days after treatment)
[21] = 100 g ai/ha, Corn (7 days after treatment)
[22] = 100 g ai/ha, Corn (14 days after treatment)
[23] = 50 g ai/ha, Wheat (7 days after treatment)
[24] = 50 g ai/ha, Wheat (14 days after treatment)
[25] = 100 g ai/ha, Wheat (7 days after treatment)
[26] = 100 g ai/ha, Wheat (14 days after treatment)
[27] = 50 g ai/ha, Soybean (7 days after treatment)
[28] = 50 g ai/ha, Soybean (14 days after treatment)
[29] = 100 g ai/ha, Soybean (7 days after treatment)
[30] = 100 g ai/ha, Soybean (14 days after treatment)
[31] = 50 g ai/ha, Cotton (10 days after treatment)
[32] = 50 g ai/ha, Cotton (20 days after treatment)
[33] = 100 g ai/ha, Cotton (10 days after treatment)
[34] = 100 g ai/ha, Cotton (20 days after treatment)
[35] = 50 g ai/ha, Rice (10 days after treatment)
[36] = 50 g ai/ha, Rice (20 days after treatment)
[37] = 100 g ai/ha, Rice (10 days after treatment)
[38] = 100 g ai/ha, Rice (20 days after treatment)
[39] = 50 g ai/ha, Corn (10 days after treatment)
[40] = 50 g ai/ha, Corn (20 days after treatment)
[41] = 100 g ai/ha, Corn (10 days after treatment)
[42] = 100 g ai/ha, Corn (20 days after treatment)
[43] = 50 g ai/ha, Wheat (10 days after treatment)
[44] = 50 g ai/ha, Wheat (20 days after treatment)
[45] = 100 g ai/ha, Wheat (10 days after treatment)
[46] = 50 g ai/ha, Soybean (20 days after treatment)
[47] = 100 g ai/ha, Soybean (20 days after treatment)
[48] = 100 g ai/ha, Wheat (20 days after treatment)

SMILES: CON(Cc1nnn(C)n1)Cc1nc(C(F)(F)F)ccc1C(=O)Nc1nnnn1C [Compound No. 2-97, 2-((methoxy((2-methyl-2H-tetrazol-5-yl)methyl)amino)methyl)-N-(1-methyl-1H-tetrazol-5-yl)-6-(trifluoromethyl)nicotinamide]
- Foliar treatment phytotoxicity, Cotton [1, 11]: 5
- Foliar treatment phytotoxicity, Cotton [1, 12]: 9
- Foliar treatment phytotoxicity, Cotton [1, 13]: 6
- Foliar treatment phytotoxicity, Cotton [1, 14]: 9
- Foliar treatment phytotoxicity, Rice [2, 15]: 6
- Foliar treatment phytotoxicity, Rice [2, 16]: 8
- Foliar treatment phytotoxicity, Rice [2, 17]: 6
- Foliar treatment phytotoxicity, Rice [2, 18]: 9
- Foliar treatment phytotoxicity, Corn [3, 19]: 0
- Foliar treatment phytotoxicity, Corn [3, 20]: 0
- Foliar treatment phytotoxicity, Corn [3, 21]: 2
- Foliar treatment phytotoxicity, Corn [3, 22]: 1
- Foliar treatment phytotoxicity, Wheat [4, 23]: 0
- Foliar treatment phytotoxicity, Wheat [4, 24]: 0
- Foliar treatment phytotoxicity, Wheat [4, 25]: 0
- Foliar treatment phytotoxicity, Wheat [4, 26]: 0
- Foliar treatment phytotoxicity, Soybean [5, 27]: 5
- Foliar treatment phytotoxicity, Soybean [5, 28]: 6
- Foliar treatment phytotoxicity, Soybean [5, 29]: 7
- Foliar treatment phytotoxicity, Soybean [5, 30]: 9
- Soil treatment phytotoxicity, Cotton [6, 31]: 1
- Soil treatment phytotoxicity, Cotton [6, 32]: 7
- Soil treatment phytotoxicity, Cotton [6, 33]: 4
- Soil treatment phytotoxicity, Cotton [6, 34]: 8
- Soil treatment phytotoxicity, Rice [7, 35]: 7
- Soil treatment phytotoxicity, Rice [7, 36]: 9
- Soil treatment phytotoxicity, Rice [7, 37]: 9
- Soil treatment phytotoxicity, Rice [7, 38]: 9
- Soil treatment phytotoxicity, Corn [8, 39]: 0
- Soil treatment phytotoxicity, Corn [8, 40]: 0
- Soil treatment phytotoxicity, Corn [8, 41]: 1
- Soil treatment phytotoxicity, Corn [8, 42]: 0
- Soil treatment phytotoxicity, Wheat [9, 43]: 0
- Soil treatment phytotoxicity, Wheat [9, 44]: 0
- Soil treatment phytotoxicity, Wheat [9, 45]: 0
- Soil treatment phytotoxicity, Soybean ([10]; 50 g ai/ha, Soybean (10 days after treatment)): 0
- Soil treatment phytotoxicity, Soybean [10, 46]: 0
- Soil treatment phytotoxicity, Soybean ([10]; 100 g ai/ha, Soybean (10 days after treatment)): 0
- Soil treatment phytotoxicity, Soybean [10, 47]: 0

SMILES: Cc1nc(COCc2nc(C(F)(F)F)ccc2C(=O)Nc2nnnn2C)nn1C [Compound No. 2-116, 2-(((1,5-dimethyl-1H-1,2,4-triazol-3-yl)methoxy)methyl)-N-(1-methyl-1H-tetrazol-5-yl)-6-(trifluoromethyl)nicotinamide]
- Foliar treatment phytotoxicity, Cotton [1, 11]: 2
- Foliar treatment phytotoxicity, Cotton [1, 12]: 1
- Foliar treatment phytotoxicity, Cotton [1, 13]: 3
- Foliar treatment phytotoxicity, Cotton [1, 14]: 2
- Foliar treatment phytotoxicity, Rice [2, 15]: 4
- Foliar treatment phytotoxicity, Rice [2, 16]: 5
- Foliar treatment phytotoxicity, Rice [2, 17]: 4
- Foliar treatment phytotoxicity, Rice [2, 18]: 5
- Foliar treatment phytotoxicity, Corn [3, 19]: 1
- Foliar treatment phytotoxicity, Corn [3, 20]: 0
- Foliar treatment phytotoxicity, Corn [3, 21]: 2
- Foliar treatment phytotoxicity, Corn [3, 22]: 2
- Foliar treatment phytotoxicity, Wheat [4, 23]: 0
- Foliar treatment phytotoxicity, Wheat [4, 24]: 0
- Foliar treatment phytotoxicity, Wheat [4, 25]: 0
- Foliar treatment phytotoxicity, Wheat [4, 26]: 0
- Foliar treatment phytotoxicity, Soybean [5, 27]: 2
- Foliar treatment phytotoxicity, Soybean [5, 28]: 3
- Foliar treatment phytotoxicity, Soybean [5, 29]: 3
- Foliar treatment phytotoxicity, Soybean [5, 30]: 5
- Soil treatment phytotoxicity, Cotton [6, 31]: 1
- Soil treatment phytotoxicity, Cotton [6, 32]: 3
- Soil treatment phytotoxicity, Cotton [6, 33]: 1
- Soil treatment phytotoxicity, Cotton [6, 34]: 2
- Soil treatment phytotoxicity, Rice [7, 35]: 0
- Soil treatment phytotoxicity, Rice [7, 36]: 3
- Soil treatment phytotoxicity, Rice [7, 37]: 0
- Soil treatment phytotoxicity, Rice [7, 38]: 2
- Soil treatment phytotoxicity, Corn [8, 39]: 1
- Soil treatment phytotoxicity, Corn [8, 40]: 4
- Soil treatment phytotoxicity, Corn [8, 41]: 1
- Soil treatment phytotoxicity, Corn [8, 42]: 3
- Soil treatment phytotoxicity, Wheat [9, 43]: 0
- Soil treatment phytotoxicity, Wheat [9, 44]: 2
- Soil treatment phytotoxicity, Wheat [9, 45]: 0
- Soil treatment phytotoxicity, Wheat [9, 48]: 0

SMILES: Cc1nc(COCc2nc(C(F)(F)F)ccc2C(=S)Nc2nnnn2C)nn1C [Compound No. 2-117, 2-(((1,5-dimethyl-1H-1,2,4-triazol-3-yl)methoxy)methyl)-N-(1-methyl-1H-tetrazol-5-yl)-6-(trifluoromethyl)pyridin-3-carbothioamide]
- Foliar treatment phytotoxicity, Cotton [1, 11]: 3
- Foliar treatment phytotoxicity, Cotton [1, 12]: 2
- Foliar treatment phytotoxicity, Cotton [1, 13]: 4
- Foliar treatment phytotoxicity, Cotton [1, 14]: 2
- Foliar treatment phytotoxicity, Rice [2, 15]: 3
- Foliar treatment phytotoxicity, Rice [2, 16]: 6
- Foliar treatment phytotoxicity, Rice [2, 17]: 4
- Foliar treatment phytotoxicity, Rice [2, 18]: 5
- Foliar treatment phytotoxicity, Corn [3, 19]: 1
- Foliar treatment phytotoxicity, Corn [3, 20]: 1
- Foliar treatment phytotoxicity, Corn [3, 21]: 3
- Foliar treatment phytotoxicity, Corn [3, 22]: 2
- Foliar treatment phytotoxicity, Wheat [4, 23]: 0
- Foliar treatment phytotoxicity, Wheat [4, 24]: 0
- Foliar treatment phytotoxicity, Wheat [4, 25]: 1
- Foliar treatment phytotoxicity, Wheat [4, 26]: 0
- Foliar treatment phytotoxicity, Soybean [5, 27]: 3
- Foliar treatment phytotoxicity, Soybean [5, 28]: 5
- Foliar treatment phytotoxicity, Soybean [5, 29]: 4
- Foliar treatment phytotoxicity, Soybean [5, 30]: 6
- Soil treatment phytotoxicity, Cotton [6, 31]: 0
- Soil treatment phytotoxicity, Cotton [6, 32]: 9
- Soil treatment phytotoxicity, Cotton [6, 33]: 0
- Soil treatment phytotoxicity, Cotton [6, 34]: 9
- Soil treatment phytotoxicity, Rice [7, 35]: 0
- Soil treatment phytotoxicity, Rice [7, 36]: 2
- Soil treatment phytotoxicity, Rice [7, 37]: 0
- Soil treatment phytotoxicity, Rice [7, 38]: 3
- Soil treatment phytotoxicity, Corn [8, 39]: 1
- Soil treatment phytotoxicity, Corn [8, 40]: 3
- Soil treatment phytotoxicity, Corn [8, 41]: 2
- Soil treatment phytotoxicity, Corn [8, 42]: 2
- Soil treatment phytotoxicity, Wheat [9, 43]: 0
- Soil treatment phytotoxicity, Wheat [9, 44]: 0
- Soil treatment phytotoxicity, Wheat [9, 45]: 0
- Soil treatment phytotoxicity, Wheat [9, 48]: 0

SMILES: Cn1nnc(CSCc2nc(C(F)(F)F)ccc2C(=O)N(c2nnnn2C)S(C)(=O)=O)n1 [Compound No. 2-110, N-(1-methyl-1H-tetrazol-5-yl)-2-((((2-methyl-2H-tetrazol-5-yl)methyl)thio)methyl)-N-(methylsulfonyl)-6-(trifluoromethyl)nicotinamide]
- Foliar treatment phytotoxicity, Corn [3, 19]: 0
- Foliar treatment phytotoxicity, Corn [3, 20]: 0
- Foliar treatment phytotoxicity, Corn [3, 21]: 0
- Foliar treatment phytotoxicity, Corn [3, 22]: 0
- Foliar treatment phytotoxicity, Wheat [4, 23]: 0
- Foliar treatment phytotoxicity, Wheat [4, 24]: 0
- Foliar treatment phytotoxicity, Wheat [4, 25]: 0
- Foliar treatment phytotoxicity, Wheat [4, 26]: 0
- Soil treatment phytotoxicity, Cotton [6, 31]: 0
- Soil treatment phytotoxicity, Cotton [6, 32]: 0
- Soil treatment phytotoxicity, Cotton [6, 33]: 0
- Soil treatment phytotoxicity, Cotton [6, 34]: 0
- Soil treatment phytotoxicity, Rice [7, 35]: 0
- Soil treatment phytotoxicity, Rice [7, 36]: 0
- Soil treatment phytotoxicity, Rice [7, 37]: 0
- Soil treatment phytotoxicity, Rice [7, 38]: 0
- Soil treatment phytotoxicity, Corn [8, 39]: 0
- Soil treatment phytotoxicity, Corn [8, 40]: 0
- Soil treatment phytotoxicity, Corn [8, 41]: 0
- Soil treatment phytotoxicity, Corn [8, 42]: 0
- Soil treatment phytotoxicity, Wheat [9, 43]: 0
- Soil treatment phytotoxicity, Wheat [9, 44]: 0
- Soil treatment phytotoxicity, Wheat [9, 45]: 0
- Soil treatment phytotoxicity, Wheat [9, 48]: 0
- Soil treatment phytotoxicity, Soybean [10, 46]: 0
- Soil treatment phytotoxicity, Soybean [10, 47]: 0
